This note sets out measurements from ChEMBL document CHEMBL1141299, “Hologram QSAR model for the prediction of human oral bioavailability” (Bioorg Med Chem, 2007).

SMILES strings stand for the structures.

A short description of the first data set: Oral bioavailability in human. The following applies: in vivo.
In general, bioavailability refers to the share of a dose that reaches the circulation, judged against a reference dose that is usually intravenous. Low readings indicate little systemic uptake, high ones much systemic uptake. The compound `CCCCCc1cc(O)c2c(c1)OC(C)(C)[C@@H]1CCC(C)=C[C@@H]21` [DRONABINOL] had a bioavailability of 15%. Compound `C[C@]12C=CC(=O)N[C@@H]1CC[C@@H]1[C@@H]2CC[C@]2(C)[C@@H](C(=O)Nc3cc(C(F)(F)F)ccc3C(F)(F)F)CC[C@@H]12` [DUTASTERIDE] yielded a bioavailability of 60%. The same measure, in the same setting: then `CCC(=O)C(C[C@H](C)N(C)C)(c1ccccc1)c1ccccc1` [ESMETHADONE], with 92%; and `CN1CCN(C(=O)O[C@H]2c3nccnc3C(=O)N2c2ccc(Cl)cn2)CC1` [ESZOPICLONE], with 80%. The same measure, in the same setting: then `OCCN1CCN(CCCN2c3ccccc3Sc3ccc(C(F)(F)F)cc32)CC1` [FLUPHENAZINE], with 2.7%. `CC(C)n1c(/C=C/[C@H](O)C[C@H](O)CC(=O)O)c(-c2ccc(F)cc2)c2ccccc21` [FLUVASTATIN]: the bioavailability was 24%.

The compound `NCC1(CC(=O)O)CCCCC1` [GABAPENTIN] displayed a bioavailability of 60%. The same measure, in the same setting: then `Cc1c(OCC(F)(F)F)ccnc1C[S+]([O-])c1nc2ccccc2[nH]1` (stereo not given) [LANSOPRAZOLE], with 80%. For `CCN[C@H](C)Cc1cccc(C(F)(F)F)c1` [LEVOFENFLURAMINE], the bioavailability stood at 89%. Still for that read-out and setting: then `CCC(=O)C(C[C@@H](C)N(C)C)(c1ccccc1)c1ccccc1` [LEVOMETHADONE], with 92%; and `CC[C@H](OC(C)=O)C(C[C@H](C)N(C)C)(c1ccccc1)c1ccccc1` [LEVOMETHADYL ACETATE], with 47%; and `CN1C[C@H](CNC(=O)OCc2ccccc2)C[C@@H]2c3cccc4c3c(cn4C)C[C@H]21` [METERGOLINE], with 23%. `CC[C@@H](CO)NC(=O)[C@@H]1C=C2c3cccc4c3c(cn4C)C[C@H]2N(C)C1` [METHYSERGIDE]: the bioavailability was 13%. Still for that read-out and setting: in the case of `Cc1ncc2n1-c1ccc(Cl)cc1C(c1ccccc1F)=NC2` [MIDAZOLAM] it was 40.5%; in that of `COc1c(N2C[C@@H]3CCCN[C@@H]3C2)c(F)cc2c(=O)c(C(=O)O)cn(C3CC3)c12` [MOXIFLOXACIN], 90%; in that of `Oc1ccc2c3c1O[C@H]1[C@@H](O)CC[C@@]4(O)[C@@H](C2)N(CC2CCC2)CC[C@]314` [NALBUPHINE], 11%. Still for that read-out and setting: in the case of `C=CCN1CC[C@]23c4c5ccc(O)c4O[C@H]2C(=O)CC[C@@]3(O)[C@H]1C5` [NALOXONE] it was 2%. Take `O=C1CC[C@@]2(O)[C@H]3Cc4ccc(O)c5c4[C@@]2(CCN3CC2CC2)[C@H]1O5` [NALTREXONE]: the bioavailability worked out at 20%. `Cc1ccnc2c1NC(=O)c1cccnc1N2C1CC1` [NEVIRAPINE]: the bioavailability worked out at 93%. For `COC(=O)C1=C(C)NC(C)=C(C(=O)OC)C1c1ccccc1[N+](=O)[O-]` [NIFEDIPINE], the bioavailability is 50%. In turn, `O=C1CN=C(c2ccccc2)c2cc([N+](=O)[O-])ccc2N1` [NITRAZEPAM] showed a bioavailability of 78%.

As for `C[C@H](N)Cc1cccc(C(F)(F)F)c1` [NORDEXFENFLURAMINE], the bioavailability was found to be 85%.

For the compound `CCOC(=O)C1=C[C@@H](OC(CC)CC)[C@H](NC(C)=O)[C@@H](N)C1` [OSELTAMIVIR], the bioavailability was found to be 75%.

The data set is the same for the next values; noted with them: in vivo, F.
With `COc1cc2nc(N3CCN(C(=O)C4COc5ccccc5O4)CC3)nc(N)c2cc1OC` (stereo not given) [DOXAZOSIN], the bioavailability worked out at 65%. `C[C@H]1c2cccc(O)c2C(=O)C2=C(O)[C@]3(O)C(=O)C(C(N)=O)=C(O)[C@@H](N(C)C)[C@@H]3[C@@H](O)[C@@H]21.O` [DOXYCYCLINE] registered a bioavailability of 93%.

Compound `Nc1nc(=O)n([C@@H]2CS[C@H](CO)O2)cc1F` [EMTRICITABINE] showed a bioavailability of 93%.

Take `N/N=c1/cc2c(n[nH]1)CCN(C(=O)c1ccccc1)C2` [ENDRALAZINE]: the bioavailability came out at 75%. Still for that read-out and setting: then `CSc1ccc(C(=O)c2[nH]c(=O)[nH]c2C)cc1` [ENOXIMONE], with 53%; and `CCN(CC)CC(O)CNC(=O)c1c(OC)c2ccccc2n1-c1ccccc1` (stereo not given) [EPROXINDINE], with 70%. Still for that read-out and setting: in the case of `CC[C@H]1OC(=O)[C@H](C)[C@@H](O[C@H]2C[C@@](C)(OC)[C@@H](O)[C@H](C)O2)[C@H](C)[C@@H](O[C@@H]2O[C@H](C)C[C@H](N(C)C)[C@H]2O)[C@](C)(O)C[C@@H](C)C(=O)[C@H](C)[C@@H](O)[C@]1(C)O` [ERYTHROMYCIN] it was 35%. For the compound `CN(C)CCC[C@@]1(c2ccc(F)cc2)OCc2cc(C#N)ccc21` [ESCITALOPRAM], the bioavailability worked out at 80%.

For `C[C@H](C(=O)O)c1ccc(-c2ccccc2)c(F)c1` [ESFLURBIPROFEN], the bioavailability was 92%. On the same count and under the same terms, then `COc1ccc2nc([S@@+]([O-])Cc3ncc(C)c(OC)c3C)[nH]c2c1` [ESOMEPRAZOLE], with 90%; and `CCCCC(=O)O[C@H]1CC[C@H]2[C@@H]3CCc4cc(O)ccc4[C@H]3CC[C@]12C` [ESTRADIOL VALERATE], with 3%; and `CC[C@@H](CO)NCCN[C@@H](CC)CO` [ETHAMBUTOL], with 77%. Same read-out and setting: then `C#C[C@]1(O)CC[C@H]2[C@@H]3CCc4cc(O)ccc4[C@H]3CC[C@@]21C` [ETHINYL ESTRADIOL], with 40%; and `CC(=O)OCC(CCn1cnc2cnc(N)nc21)COC(C)=O` [FAMCICLOVIR], with 77%. The compound `COc1ccc(-c2nc(-c3ccc(F)cc3F)[nH]c2-c2ccc(OC)cc2)cc1` [FENFLUMIZOLE] registered a bioavailability of 50%. As to `Cc1onc(-c2c(F)cccc2Cl)c1C(=O)N[C@@H]1C(=O)N2[C@@H]1SC(C)(C)[C@@H]2C(=O)O` [FLOXACILLIN], the bioavailability was 49%. Compound `Nc1nc(=O)[nH]cc1F` [FLUCYTOSINE] showed a bioavailability of 83.5%. On the same count and under the same terms, then `CC1(C)O[C@@H]2C[C@H]3[C@@H]4C[C@H](F)C5=CC(=O)C=C[C@]5(C)[C@H]4[C@@H](O)C[C@]3(C)[C@]2(C(=O)CO)O1` [FLUNISOLIDE], with 20%; and `C[C@@H]1C[C@H]2[C@@H]3C[C@H](F)C4=CC(=O)C=C[C@]4(C)[C@H]3[C@@H](O)C[C@]2(C)[C@H]1C(=O)CO` [FLUOCORTOLONE], with 83.5%. As to `C[C@@H]1C[C@H]2[C@@H]3C[C@H](F)C4=CC(=O)C=C[C@]4(C)[C@@]3(F)[C@@H](O)C[C@]2(C)[C@@]1(O)C(=O)SCF` [FLUTICASONE], the bioavailability is 1%. Still for that read-out and setting: then `COc1cc2ncnc(Nc3ccc(F)c(Cl)c3)c2cc1OCCCN1CCOCC1` [GEFITINIB], with 60%.

Compound `CO/N=C1\CN(c2nc3c(cc2F)c(=O)c(C(=O)O)cn3C2CC2)CC1CN` (stereo not given) [GEMIFLOXACIN] had a bioavailability of 71%. Same read-out and setting: then `CCC1=C(C)CN(C(=O)NCCc2ccc(S(=O)(=O)NC(=O)N[C@H]3CC[C@H](C)CC3)cc2)C1=O` [GLIMEPIRIDE], with 100%. In the case of `COc1ccc(Cl)cc1C(=O)NCCc1ccc(S(=O)(=O)NC(=O)NC2CCCCC2)cc1` [GLYBURIDE], the bioavailability turned out to be 95%. `O=C(CCCN1CCC(O)(c2ccc(Cl)cc2)CC1)c1ccc(F)cc1` [HALOPERIDOL] displayed a bioavailability of 60%. Consider `NS(=O)(=O)c1cc2c(cc1Cl)NCNS2(=O)=O` [HYDROCHLOROTHIAZIDE], for which the bioavailability amounted to 71%. Same read-out and setting: in the case of `CC(=O)[C@]1(O)Cc2c(O)c3c(c(O)c2[C@@H](O[C@H]2C[C@H](N)[C@H](O)[C@H](C)O2)C1)C(=O)c1ccccc1C3=O` [IDARUBICIN] it was 28%. The same measure, in the same setting: then `CN(C)CCCN1c2ccccc2CCc2ccccc21` [IMIPRAMINE], with 42%. On the same count and under the same terms, then `CCC(C)n1ncn(-c2ccc(N3CCN(c4ccc(OC[C@H]5CO[C@](Cn6cncn6)(c6ccc(Cl)cc6Cl)O5)cc4)CC3)cc2)c1=O` (stereo not given in full) [ITRACONAZOLE], with 55%; and `Nc1ccn([C@@H]2CS[C@H](CO)O2)c(=O)n1` [LAMIVUDINE], with 86%. Regarding `N#Cc1ccc(C(c2ccc(C#N)cc2)n2cncn2)cc1` [LETROZOLE], the bioavailability was 99.9%. The compound `C#C[C@]1(O)CC[C@H]2[C@@H]3CCC4=CC(=O)CC[C@@H]4[C@H]3CC[C@@]21CC` [LEVONORGESTREL] displayed a bioavailability of 87%. Same read-out and setting: in the case of `C=C1c2cccc(O)c2C(=O)C2=C(O)[C@]3(O)C(=O)C(C(N)=O)=C(O)[C@@H](N(C)C)[C@@H]3[C@@H](O)[C@H]12` [METHACYCLINE] it was 58%; in that of `Cn1cc[nH]c1=S` [METHIMAZOLE], 93%; in that of `CN(Cc1cnc2nc(N)nc(N)c2n1)c1ccc(C(=O)N[C@@H](CCC(=O)O)C(=O)O)cc1` [METHOTREXATE], 70%. The compound `C[C@H]1C[C@@H]2[C@H]([C@@H](O)C[C@@]3(C)[C@H]2CC[C@]3(O)C(=O)CO)[C@@]2(C)C=CC(=O)C=C12` [METHYLPREDNISOLONE] registered a bioavailability of 82%. Consider `CS(=O)(=O)c1ccc2c(c1)N(CCCN1CCC(C(N)=O)CC1)c1ccccc1S2` [METOPIMAZINE], for which the bioavailability was 19%. Regarding `Cc1[nH]c(=O)c(C#N)cc1-c1ccncc1` [MILRINONE], the bioavailability is 92%. Turning to `CN(C)c1ccc(O)c2c1C[C@H]1C[C@H]3[C@H](N(C)C)C(O)=C(C(N)=O)C(=O)[C@@]3(O)C(O)=C1C2=O` [MINOCYCLINE], the bioavailability came to 97.5%.

As to `CCOC(=O)[C@H](CCc1ccccc1)N[C@@H](C)C(=O)N1Cc2cc(OC)c(OC)cc2C[C@H]1C(=O)O` [MOEXIPRIL], the bioavailability came to 13%.

`CC(C)(O)c1ccccc1CC[C@@H](SCC1(CC(=O)O)CC1)c1cccc(/C=C/c2ccc3ccc(Cl)cc3n2)c1` [MONTELUKAST] gave a bioavailability of 73%. On the same count and under the same terms, in the case of `COc1c(C)c2c(c(O)c1C/C=C(\C)CCC(=O)O)C(=O)OC2` [MYCOPHENOLIC ACID] it was 72%. On to `O=C1CN(/N=C/c2ccc([N+](=O)[O-])o2)C(=O)N1` [NITROFURANTOIN], for which the bioavailability was 87%.

`CNC(=C[N+](=O)[O-])NCCSCc1csc(CN(C)C)n1` [NIZATIDINE] showed a bioavailability of 70%.

Regarding `C#C[C@]1(O)CC[C@H]2[C@@H]3CCC4=CC(=O)CC[C@@H]4[C@H]3CC[C@@]21C` [NORETHINDRONE], the bioavailability amounted to 64%. With `CNC/C=C(\c1ccc(Br)cc1)c1cccnc1` [NORZIMELIDINE], the bioavailability is 66%. Same read-out and setting: in the case of `CCCc1nc(C(C)(C)O)c(C(=O)O)n1Cc1ccc(-c2ccccc2-c2nnn[nH]2)cc1` [OLMESARTAN] it was 26%.
